According to US12570613B2, “Imidazoquinoline or benzoindazolone compound and intermediate for preparing same” (LMITO THERAPEUTICS INC., priority 2020, dated 2026):

Molecular target: NQO1 protein (Homo sapiens, UniProt P15559)
Assay: In vitro NQO1 enzyme activity assay (cytochrome C reduction, absorbance at 550 nm)
Assay type: biochemical
Conditions: NQO1 2 ng
Protocol: In order to evaluate the activity of the synthesized compound in NQO1, the experiments were performed as follows:
The synthesized compound was dissolved in DMSO to make a 10 mM stock solution, which was further diluted with DMSO to 250 μM so as to prepare a working solution. For experimental groups, the working solution of the compound was added to an enzyme reaction solution in which 50 μL of 1.54 mM Cytochrome C solution was added to 900 μL of 50 mM Tris-HCl (pH7.5) containing 0.14% BSA. For negative control groups, DMSO not containing the compound of the invention was added to the enzyme reaction solution as above. For each experimental and control group, 20 μL of 100 ng/mL NQO1 protein was added, and then 10 μL of 20 mM NADH was added to bring up the total volume to 1 mL. The change of absorbance was measured at 550 nm for 10 minutes using 1 mL cuvette. The kinetics of reaction was measured by the increase of absorbance as the cytochrome C was reduced at 550 nm over 10 minutes. The activity of NQO1 was measured by the amount of cytochrome C that is being reduced (nmol cytochrome C that was reduced/min/ug NQO1 protein). • Absorption coefficient of Cytochrome C: 21.1 (μmol/mL)^−1cm^−1 • BSA: Bovine Serum Albumin • […]: Tris(hydroxymethyl)aminomethane hydrochloride (buffer solution) • Equipment=Cary 100 UV-Vis Spectrophotometer • The results are shown in Tables 1 to 8.

NQO1 protein, sequence (P15559 whole entry, species assumed): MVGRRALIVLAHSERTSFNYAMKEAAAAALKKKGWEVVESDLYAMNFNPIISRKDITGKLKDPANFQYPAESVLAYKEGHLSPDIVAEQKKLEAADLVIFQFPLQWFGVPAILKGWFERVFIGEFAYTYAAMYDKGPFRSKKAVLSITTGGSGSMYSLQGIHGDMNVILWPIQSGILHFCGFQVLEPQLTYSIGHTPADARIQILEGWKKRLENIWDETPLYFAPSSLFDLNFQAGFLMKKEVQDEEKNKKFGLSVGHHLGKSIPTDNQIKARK

O=C1C(=O)c2ncc(-c3ccccc3)n2-c2ccccc21 [Compound 1, 1-Phenylimidazo[1,2-a]quinolin-4,5-dione]
NQO1 activity assay Cytochrome C reduced/min/μg NQO1 protein (10 nM Compound (Table 1)): 658 nmol cytochrome C that was reduced/min/ug NQO1 protein

O=C1C(=O)c2ncc(-c3ccc(F)cc3)n2-c2ccccc21 [Compound 2, 1-(4-Fluorophenyl)imidazo[1,2-a]quinolin-4,5-dione]
NQO1 activity assay Cytochrome C reduced/min/μg NQO1 protein (10 nM Compound (Table 1)): 455 nmol cytochrome C that was reduced/min/ug NQO1 protein

CC(C)c1cnc2n1-c1ccccc1C(=O)C2=O [Compound 3, 1-Isopropylimidazo[1,2-a]quinolin-4,5-dione]
NQO1 activity assay Cytochrome C reduced/min/μg NQO1 protein (10 nM Compound (Table 1)): 755 nmol cytochrome C that was reduced/min/ug NQO1 protein

O=C1C(=O)c2ncc(-c3ccc(C(F)(F)F)cc3)n2-c2ccccc21 [Compound 4, 1-(4-(Trifluoromethyl)phenyl)imidazo[1,2-a]quinoline-4,5-dione]
NQO1 activity assay Cytochrome C reduced/min/μg NQO1 protein (10 nM Compound (Table 1)): 170 nmol cytochrome C that was reduced/min/ug NQO1 protein

CCOC(=O)c1cn2c(n1)C(=O)C(=O)c1ccccc1-2 [Compound 5, Ethyl 4,5-dioxo-4,5-dihydroimidazo[1,2-a]quinolin-2-carboxylate]
NQO1 activity assay Cytochrome C reduced/min/μg NQO1 protein (10 nM Compound (Table 1)): 816 nmol cytochrome C that was reduced/min/ug NQO1 protein

CCOC(=O)c1nc2n(c1-c1ccccc1)-c1ccccc1C(=O)C2=O [Compound 6, Ethyl 4,5-dioxo-1-phenyl-4,5-dihydroimidazo[1,2-a]quinolin-2-carboxylate]
NQO1 activity assay Cytochrome C reduced/min/μg NQO1 protein (10 nM Compound (Table 1)): 916 nmol cytochrome C that was reduced/min/ug NQO1 protein

CN(C)C(=O)c1nc2n(c1-c1ccccc1)-c1ccccc1C(=O)C2=O [Compound 7, N,N-dimethyl-4,5-dioxo-1-phenyl-4,5-dihydroimidazo[1,2-a]quinolin-2-carboxamide]
NQO1 activity assay Cytochrome C reduced/min/μg NQO1 protein (10 nM Compound (Table 1)): 96 nmol cytochrome C that was reduced/min/ug NQO1 protein

CNC(=O)c1nc2n(c1-c1ccccc1)-c1ccccc1C(=O)C2=O [Compound 8, N-methyl-4,5-dioxo-1-phenyl-4,5-dihydroimidazo[1,2-a]quinolin-2-carboxamide]
NQO1 activity assay Cytochrome C reduced/min/μg NQO1 protein (10 nM Compound (Table 1)): 112 nmol cytochrome C that was reduced/min/ug NQO1 protein

Cc1nn(-c2ccccc2)c2c1C(=O)C(=O)c1ccccc1-2 [Compound 9, 3-Methyl-1-phenyl-1H-benzo[g]indazol-4,5-dione]
NQO1 activity assay Cytochrome C reduced/min/μg NQO1 protein (10 nM Compound (Table 1)): 932 nmol cytochrome C that was reduced/min/ug NQO1 protein
NQO1 activity assay Cytochrome C reduced/min/μg NQO1 protein (50 nM Compound (Table 2)): 2093 nmol cytochrome C that was reduced/min/ug NQO1 protein
NQO1 activity assay Cytochrome C reduced/min/μg NQO1 protein (50 nM Compound (Table 3)): 3089 nmol cytochrome C that was reduced/min/ug NQO1 protein
NQO1 activity assay Cytochrome C reduced/min/μg NQO1 protein (50 nM Compound (Table 4)): 3864 nmol cytochrome C that was reduced/min/ug NQO1 protein
NQO1 activity assay Cytochrome C reduced/min/μg NQO1 protein (50 nM Compound (Table 5)): 3091 nmol cytochrome C that was reduced/min/ug NQO1 protein
NQO1 activity assay Cytochrome C reduced/min/μg NQO1 protein (50 nM Compound (Table 6)): 2885 nmol cytochrome C that was reduced/min/ug NQO1 protein
NQO1 activity assay Cytochrome C reduced/min/μg NQO1 protein (50 nM Compound (Table 7)): 2892 nmol cytochrome C that was reduced/min/ug NQO1 protein
NQO1 activity assay Cytochrome C reduced/min/μg NQO1 protein (50 nM Compound (Table 8)): 2709 nmol cytochrome C that was reduced/min/ug NQO1 protein

CC(C)c1nn(-c2ccccc2)c2c1C(=O)C(=O)c1ccccc1-2 [Compound 10, 3-Isopropyl-1-phenyl-1H-benzo[g]indazol-4,5-dione]
NQO1 activity assay Cytochrome C reduced/min/μg NQO1 protein (10 nM Compound (Table 1)): 138 nmol cytochrome C that was reduced/min/ug NQO1 protein

CCCCCCCc1nn(-c2ccccc2)c2c1C(=O)C(=O)c1ccccc1-2 [Compound 11, 3-Heptyl-1-phenyl-1H-benzo[g]indazol-4,5-dione]
NQO1 activity assay Cytochrome C reduced/min/μg NQO1 protein (10 nM Compound (Table 1)): 203 nmol cytochrome C that was reduced/min/ug NQO1 protein

O=C1C(=O)c2c(CCc3ccccc3)nn(-c3ccccc3)c2-c2ccccc21 [Compound 12, 3-Phenethyl-1-phenyl-1H-benzo[g]indazol-4,5-dione]
NQO1 activity assay Cytochrome C reduced/min/μg NQO1 protein (10 nM Compound (Table 1)): 225 nmol cytochrome C that was reduced/min/ug NQO1 protein

O=C1C(=O)c2c(-c3ccccc3)nn(-c3ccccc3)c2-c2ccccc21 [Compound 13, 1,3-Diphenyl-1H-benzo[g]indazol-4,5-dione]
NQO1 activity assay Cytochrome C reduced/min/μg NQO1 protein (10 nM Compound (Table 1)): 198 nmol cytochrome C that was reduced/min/ug NQO1 protein

O=C1C(=O)c2c(-c3ccc(F)cc3)nn(-c3ccccc3)c2-c2ccccc21 [Compound 14, 3-(4-Fluorophenyl)-1-phenyl-1H-benzo[g]indazol-4,5-dione]
NQO1 activity assay Cytochrome C reduced/min/μg NQO1 protein (10 nM Compound (Table 1)): 156 nmol cytochrome C that was reduced/min/ug NQO1 protein

O=C1C(=O)c2c(-c3ccc(F)c(F)c3)nn(-c3ccccc3)c2-c2ccccc21 [Compound 15, 3-(3,4-Difluorophenyl)-1-phenyl-1H-benzo[g]indazol-4,5-dione]
NQO1 activity assay Cytochrome C reduced/min/μg NQO1 protein (10 nM Compound (Table 1)): 190 nmol cytochrome C that was reduced/min/ug NQO1 protein

O=C1C(=O)c2c(CBr)nn(-c3ccccc3)c2-c2ccccc21 [Compound 16, 3-(Bromomethyl)-1-phenyl-1H-benzo[g]indazol-4,5-dione]
NQO1 activity assay Cytochrome C reduced/min/μg NQO1 protein (10 nM Compound (Table 1)): 596 nmol cytochrome C that was reduced/min/ug NQO1 protein

CN(C)Cc1nn(-c2ccccc2)c2c1C(=O)C(=O)c1ccccc1-2 [Compound 17, 3-((Dimethylamino)methyl)-1-phenyl-1H-benzo[g]indazol-4,5-dione]
NQO1 activity assay Cytochrome C reduced/min/μg NQO1 protein (10 nM Compound (Table 1)): 254 nmol cytochrome C that was reduced/min/ug NQO1 protein

COCc1nn(-c2ccccc2)c2c1C(=O)C(=O)c1ccccc1-2 [Compound 18, 3-(Methoxymethyl)-1-phenyl-1H-benzo[g]indazol-4,5-dione]
NQO1 activity assay Cytochrome C reduced/min/μg NQO1 protein (10 nM Compound (Table 1)): 189 nmol cytochrome C that was reduced/min/ug NQO1 protein

CC(C)OCc1nn(-c2ccccc2)c2c1C(=O)C(=O)c1ccccc1-2 [Compound 19, 3-(Isopropoxymethyl)-1-phenyl-1H-benzo[g]indazol-4,5-dione]
NQO1 activity assay Cytochrome C reduced/min/μg NQO1 protein (10 nM Compound (Table 1)): 106 nmol cytochrome C that was reduced/min/ug NQO1 protein

Cc1nn(C(C)C)c2c1C(=O)C(=O)c1ccccc1-2 [Compound 20, 1-Isopropyl-3-methyl-1H-benzo[g]indazol-4,5-dione]
NQO1 activity assay Cytochrome C reduced/min/μg NQO1 protein (10 nM Compound (Table 1)): 918 nmol cytochrome C that was reduced/min/ug NQO1 protein

Cc1c2c(nn1C(C)C)-c1ccccc1C(=O)C2=O [Compound 21, 2-Isopropyl-3-methyl-2H-benzo[g]indazol-4,5-dione]
NQO1 activity assay Cytochrome C reduced/min/μg NQO1 protein (10 nM Compound (Table 1)): 925 nmol cytochrome C that was reduced/min/ug NQO1 protein

Cc1nn(C)c2c1C(=O)C(=O)c1ccccc1-2 [Compound 22, 1,3-Dimethyl-1H-benzo[g]indazol-4,5-dione]
NQO1 activity assay Cytochrome C reduced/min/μg NQO1 protein (10 nM Compound (Table 1)): 481 nmol cytochrome C that was reduced/min/ug NQO1 protein

Cc1c2c(nn1C)-c1ccccc1C(=O)C2=O [Compound 23, 2,3-Dimethyl-2H-benzo[g]indazol-4,5-dione]
NQO1 activity assay Cytochrome C reduced/min/μg NQO1 protein (10 nM Compound (Table 1)): 477 nmol cytochrome C that was reduced/min/ug NQO1 protein

O=C1C(=O)c2c(Cn3ccnc3)nn(-c3ccccc3)c2-c2ccccc21 [Compound 24, 3-((1H-Imidazol-1-yl)methyl)-1-phenyl-1H-benzo[g]indazol-4,5-dione]
NQO1 activity assay Cytochrome C reduced/min/μg NQO1 protein (10 nM Compound (Table 1)): 596 nmol cytochrome C that was reduced/min/ug NQO1 protein

Cc1nn(-c2ccc(F)cc2)c2c1C(=O)C(=O)c1ccccc1-2 [Compound 25, 1-(4-Fluorophenyl)-3-methyl-1H-benzo[g]indazol-4,5-dione]
NQO1 activity assay Cytochrome C reduced/min/μg NQO1 protein (10 nM Compound (Table 1)): 463 nmol cytochrome C that was reduced/min/ug NQO1 protein

Cc1nn(-c2ccc(Cl)cc2)c2c1C(=O)C(=O)c1ccccc1-2 [Compound 26, 1-(4-Chlorophenyl)-3-methyl-1H-benzo[g]indazol-4,5-dione]
NQO1 activity assay Cytochrome C reduced/min/μg NQO1 protein (10 nM Compound (Table 1)): 465 nmol cytochrome C that was reduced/min/ug NQO1 protein

Cc1nn(-c2cc(F)cc(F)c2)c2c1C(=O)C(=O)c1ccccc1-2 [Compound 27, 1-(3,5-Difluorophenyl)-3-methyl-1H-benzo[g]indazol-4,5-dione]
NQO1 activity assay Cytochrome C reduced/min/μg NQO1 protein (10 nM Compound (Table 1)): 415 nmol cytochrome C that was reduced/min/ug NQO1 protein

Cc1nn(-c2ccc(Cl)cc2Cl)c2c1C(=O)C(=O)c1ccccc1-2 [Compound 28, 1-(2,4-Dichlorophenyl)-3-methyl-1H-benzo[g]indazol-4,5-dione]
NQO1 activity assay Cytochrome C reduced/min/μg NQO1 protein (10 nM Compound (Table 1)): 745 nmol cytochrome C that was reduced/min/ug NQO1 protein

Cc1ccc(-n2nc(C)c3c2-c2ccccc2C(=O)C3=O)cc1 [Compound 29, 3-Methyl-1-p-tolyl-1H-benzo[g]indazol-4,5-dione]
NQO1 activity assay Cytochrome C reduced/min/μg NQO1 protein (10 nM Compound (Table 1)): 668 nmol cytochrome C that was reduced/min/ug NQO1 protein

Cc1nn(-c2ccccn2)c2c1C(=O)C(=O)c1ccccc1-2 [Compound 30, 3-Methyl-1-(pyridin-2-yl)-1H-benzo[g]indazol-4,5-dione]
NQO1 activity assay Cytochrome C reduced/min/μg NQO1 protein (10 nM Compound (Table 1)): 494 nmol cytochrome C that was reduced/min/ug NQO1 protein

Cc1nn(-c2cccnc2)c2c1C(=O)C(=O)c1ccccc1-2 [Compound 31, 3-Methyl-1-(pyridin-3-yl)-1H-benzo[g]indazol-4,5-dione]
NQO1 activity assay Cytochrome C reduced/min/μg NQO1 protein (10 nM Compound (Table 1)): 900 nmol cytochrome C that was reduced/min/ug NQO1 protein
